Read-outs that look alike come from different tables or passages of the source.
Columns and labels:
Experiment in all cases: Radiolabeled ATP kinase assay, panel of 371 kinases (Table S6)
Assay type in all cases: biochemical
[1] = target: T1, panel of 371 human kinases (Homo sapiens, UniProt O75716); settings: STK16; 0.1 μM; 10 μM ATP; read-out: % Enzyme Activity (relative to DMSO controls)
T1 construct: purchased Reaction Biology Corp
Description: (§1) ; FIG. 38C). […]. Further targeted analyses, such as genetic knock-down or knock-out, may be warranted to parse the role of these additional kinases in our model of neurodegeneration.

[2] = target: T2, panel of 371 human kinases (Homo sapiens, UniProt Q99986); settings: VRK1; 0.1 μM; 10 μM ATP; read-out: % Enzyme Activity (relative to DMSO controls)
T2 construct: purchased Reaction Biology Corp
Description: as §1

[3] = target: T3, panel of 371 human kinases (Homo sapiens, UniProt P17612); settings: PKA; 0.1 μM; 10 μM ATP; read-out: % Enzyme Activity (relative to DMSO controls)
T3 construct: purchased Reaction Biology Corp
Description: as §1

[4] = target: T4, panel of 371 human kinases (Homo sapiens, UniProt Q16644); settings: MAPKAPK3; 0.1 μM; 10 μM ATP; read-out: % Enzyme Activity (relative to DMSO controls)
T4 construct: purchased Reaction Biology Corp
Description: as §1

[5] = target: T5, panel of 371 human kinases (Homo sapiens, UniProt Q5S007); settings: LRRK2; 0.1 μM; 10 μM ATP; read-out: % Enzyme Activity (relative to DMSO controls)
T5 construct: purchased Reaction Biology Corp
Description: as §1

[6] = target: T6, panel of 371 human kinases (Homo sapiens, UniProt Q14289); settings: PYK2; 0.1 μM; 10 μM ATP; read-out: % Enzyme Activity (relative to DMSO controls)
T6 construct: purchased Reaction Biology Corp
Description: as §1

[7] = target: T7, panel of 371 human kinases (Homo sapiens, UniProt P00519); settings: ABL1; 0.1 μM; 10 μM ATP; read-out: % Enzyme Activity (relative to DMSO controls)
T7 construct: purchased Reaction Biology Corp
Description: as §1

[8] = target: T8, panel of 371 human kinases (Homo sapiens, UniProt P52564); settings: MKK6; 0.1 μM; 10 μM ATP; read-out: % Enzyme Activity (relative to DMSO controls)
T8 construct: purchased Reaction Biology Corp
Description: as §1

[9] = target: T9, panel of 371 human kinases (Homo sapiens, UniProt Q9BXA6); settings: SSTK/TSSK6; 0.1 μM; 10 μM ATP; read-out: % Enzyme Activity (relative to DMSO controls)
T9 construct: purchased Reaction Biology Corp
Description: as §1

[10] = target: T10, panel of 371 human kinases (Homo sapiens, UniProt P06241); settings: FYN; 0.1 μM; 10 μM ATP; read-out: % Enzyme Activity (relative to DMSO controls)
T10 construct: purchased Reaction Biology Corp
Description: as §1

[11] = target: T11, panel of 371 human kinases (Homo sapiens, UniProt Q7KZI7); settings: MARK2/PAR-1Ba; 0.1 μM; 10 μM ATP; read-out: % Enzyme Activity (relative to DMSO controls)
T11 construct: purchased Reaction Biology Corp
Description: as §1

[12] = target: T12, panel of 371 human kinases (Homo sapiens, UniProt P36896); settings: ALK4/ACVR1B; 0.1 μM; 10 μM ATP; read-out: % Enzyme Activity (relative to DMSO controls)
T12 construct: purchased Reaction Biology Corp
Description: as §1

[13] = target: T13, panel of 371 human kinases (Homo sapiens, UniProt O00238); settings: ALK6/BMPR1B; 0.1 μM; 10 μM ATP; read-out: % Enzyme Activity (relative to DMSO controls)
T13 construct: purchased Reaction Biology Corp
Description: as §1

[14] = target: T14, panel of 371 human kinases (Homo sapiens, UniProt Q9NWZ3); settings: IRAK4; 0.1 μM; 10 μM ATP; read-out: % Enzyme Activity (relative to DMSO controls)
T14 construct: purchased Reaction Biology Corp
Description: as §1

[15] = target: T15, panel of 371 human kinases (Homo sapiens, UniProt P11362); settings: FGFR1; 0.1 μM; 10 μM ATP; read-out: % Enzyme Activity (relative to DMSO controls)
T15 construct: purchased Reaction Biology Corp
Description: as §1

[16] = target: T16, panel of 371 human kinases (Homo sapiens, UniProt Q00534); settings: 0.1 μM, 10 μM ATP, read-out: % Enzyme Activity (relative to DMSO controls)
T16 construct: purchased Reaction Biology Corp
Description: as §1

[17] = target: T17, panel of 371 human kinases (Homo sapiens, UniProt O14578); settings: STK21/CIT; 0.1 μM; 10 μM ATP; read-out: % Enzyme Activity (relative to DMSO controls)
T17 construct: purchased Reaction Biology Corp
Description: as §1

[18] = target: T18, panel of 371 human kinases (Homo sapiens, UniProt Q9BUB5); settings: MNK1; 0.1 μM; 10 μM ATP; read-out: % Enzyme Activity (relative to DMSO controls)
T18 construct: purchased Reaction Biology Corp
Description: as §1

[19] = target: T19, panel of 371 human kinases (Homo sapiens, UniProt Q9Y4K4); settings: for remaining activity at 0.1 µM: KHS/MAP4K5, 10 μM ATP, read-out: % Enzyme Activity (relative to DMSO controls)
T19 construct: purchased Reaction Biology Corp
Description: as §1

[20] = target: T20, panel of 371 human kinases (Homo sapiens, UniProt Q96KB5); settings: PBK/TOPK; 0.1 μM; 10 μM ATP; read-out: % Enzyme Activity (relative to DMSO controls)
T20 construct: purchased Reaction Biology Corp
Description: as §1

[21] = target: T21, panel of 371 human kinases (Homo sapiens, UniProt Q8IWQ3); settings: BRSK2; 0.1 μM; 10 μM ATP; read-out: % Enzyme Activity (relative to DMSO controls)
T21 construct: purchased Reaction Biology Corp
Description: as §1

[22] = target: T22, panel of 371 human kinases (Homo sapiens, UniProt P41240); settings: CSK; 0.1 μM; 10 μM ATP; read-out: % Enzyme Activity (relative to DMSO controls)
T22 construct: purchased Reaction Biology Corp
Description: as §1

[23] = target: T23, panel of 371 human kinases (Homo sapiens, UniProt Q7L7X3); settings: TAOK1; 0.1 μM; 10 μM ATP; read-out: % Enzyme Activity (relative to DMSO controls)
T23 construct: purchased Reaction Biology Corp
Description: as §1

[24] = target: T24, panel of 371 human kinases (Homo sapiens, UniProt Q13153); settings: PAK1; 0.1 μM; 10 μM ATP; read-out: % Enzyme Activity (relative to DMSO controls)
T24 construct: purchased Reaction Biology Corp
Description: as §1

T16 sequence (Q00534 whole entry): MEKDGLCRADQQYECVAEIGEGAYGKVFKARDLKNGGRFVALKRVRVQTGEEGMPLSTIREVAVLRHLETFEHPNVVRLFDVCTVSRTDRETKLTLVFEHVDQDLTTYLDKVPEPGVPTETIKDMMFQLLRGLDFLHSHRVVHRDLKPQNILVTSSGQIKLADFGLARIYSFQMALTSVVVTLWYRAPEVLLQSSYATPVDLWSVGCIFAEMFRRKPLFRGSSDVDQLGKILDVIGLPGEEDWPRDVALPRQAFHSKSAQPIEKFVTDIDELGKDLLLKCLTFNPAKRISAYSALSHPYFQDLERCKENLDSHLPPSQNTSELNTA
T19 sequence (Q9Y4K4 whole entry): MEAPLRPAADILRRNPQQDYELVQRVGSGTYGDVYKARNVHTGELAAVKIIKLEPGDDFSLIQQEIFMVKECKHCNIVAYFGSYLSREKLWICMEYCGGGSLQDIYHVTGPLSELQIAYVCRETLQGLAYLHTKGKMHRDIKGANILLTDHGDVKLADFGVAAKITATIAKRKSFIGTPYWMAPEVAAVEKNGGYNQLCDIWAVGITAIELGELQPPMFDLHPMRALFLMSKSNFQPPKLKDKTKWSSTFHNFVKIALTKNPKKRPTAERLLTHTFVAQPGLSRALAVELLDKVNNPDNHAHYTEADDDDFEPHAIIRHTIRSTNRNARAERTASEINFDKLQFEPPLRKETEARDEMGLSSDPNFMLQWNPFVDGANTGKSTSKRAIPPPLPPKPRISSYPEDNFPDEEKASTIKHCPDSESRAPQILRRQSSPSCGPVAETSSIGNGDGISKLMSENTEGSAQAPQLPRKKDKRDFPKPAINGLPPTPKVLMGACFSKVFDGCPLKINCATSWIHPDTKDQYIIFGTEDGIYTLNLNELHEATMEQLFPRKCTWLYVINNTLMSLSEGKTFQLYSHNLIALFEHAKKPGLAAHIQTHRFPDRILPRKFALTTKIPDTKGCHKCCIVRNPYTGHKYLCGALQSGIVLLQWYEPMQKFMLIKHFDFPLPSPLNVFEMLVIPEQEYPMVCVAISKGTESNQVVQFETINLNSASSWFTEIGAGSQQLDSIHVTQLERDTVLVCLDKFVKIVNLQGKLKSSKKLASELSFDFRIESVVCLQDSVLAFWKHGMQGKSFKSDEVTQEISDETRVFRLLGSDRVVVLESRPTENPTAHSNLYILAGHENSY
T11 sequence (Q7KZI7 whole entry): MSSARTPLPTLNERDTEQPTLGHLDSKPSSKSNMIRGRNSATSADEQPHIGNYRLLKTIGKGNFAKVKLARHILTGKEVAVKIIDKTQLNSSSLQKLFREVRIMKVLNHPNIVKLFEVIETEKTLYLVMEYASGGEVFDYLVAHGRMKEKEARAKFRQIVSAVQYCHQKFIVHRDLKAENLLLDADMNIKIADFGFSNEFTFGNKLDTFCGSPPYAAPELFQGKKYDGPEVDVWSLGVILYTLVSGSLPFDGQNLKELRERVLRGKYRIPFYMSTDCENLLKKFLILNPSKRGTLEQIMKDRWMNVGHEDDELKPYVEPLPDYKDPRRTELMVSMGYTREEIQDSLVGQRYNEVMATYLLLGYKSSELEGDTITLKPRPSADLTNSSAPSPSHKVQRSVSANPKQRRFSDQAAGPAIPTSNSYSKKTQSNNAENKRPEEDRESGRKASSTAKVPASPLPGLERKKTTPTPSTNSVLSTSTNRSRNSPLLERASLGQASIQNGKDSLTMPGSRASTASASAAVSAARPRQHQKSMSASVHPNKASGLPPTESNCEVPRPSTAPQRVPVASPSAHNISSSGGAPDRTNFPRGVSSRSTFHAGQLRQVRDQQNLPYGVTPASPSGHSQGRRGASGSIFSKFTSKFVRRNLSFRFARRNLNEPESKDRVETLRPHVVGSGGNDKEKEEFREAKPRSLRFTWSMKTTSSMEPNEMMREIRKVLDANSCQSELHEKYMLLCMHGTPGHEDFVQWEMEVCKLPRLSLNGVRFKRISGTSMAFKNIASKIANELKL
T10 sequence (P06241 whole entry): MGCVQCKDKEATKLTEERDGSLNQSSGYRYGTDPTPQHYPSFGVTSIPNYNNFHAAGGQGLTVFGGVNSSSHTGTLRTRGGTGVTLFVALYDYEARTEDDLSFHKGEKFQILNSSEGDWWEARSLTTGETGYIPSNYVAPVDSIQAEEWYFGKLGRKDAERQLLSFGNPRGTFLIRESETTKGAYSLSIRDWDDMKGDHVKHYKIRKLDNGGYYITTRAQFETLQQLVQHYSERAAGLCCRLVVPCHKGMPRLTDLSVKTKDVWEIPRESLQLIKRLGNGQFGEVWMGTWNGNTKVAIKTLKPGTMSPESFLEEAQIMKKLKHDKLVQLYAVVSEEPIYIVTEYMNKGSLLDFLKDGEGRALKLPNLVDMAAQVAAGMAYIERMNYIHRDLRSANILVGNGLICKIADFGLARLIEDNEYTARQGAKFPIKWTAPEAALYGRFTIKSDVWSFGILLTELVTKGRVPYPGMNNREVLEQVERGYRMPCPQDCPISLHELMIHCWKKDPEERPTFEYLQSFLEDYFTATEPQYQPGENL
T8 sequence (P52564 whole entry): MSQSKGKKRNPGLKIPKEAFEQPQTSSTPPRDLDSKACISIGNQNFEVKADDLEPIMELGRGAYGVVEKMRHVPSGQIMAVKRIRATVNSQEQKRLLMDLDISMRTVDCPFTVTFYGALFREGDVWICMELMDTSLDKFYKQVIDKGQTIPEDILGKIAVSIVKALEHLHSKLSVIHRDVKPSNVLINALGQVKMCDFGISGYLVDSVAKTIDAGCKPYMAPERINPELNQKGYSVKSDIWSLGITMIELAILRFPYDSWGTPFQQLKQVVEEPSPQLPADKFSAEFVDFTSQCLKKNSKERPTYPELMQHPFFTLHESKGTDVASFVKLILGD
T22 sequence (P41240 whole entry): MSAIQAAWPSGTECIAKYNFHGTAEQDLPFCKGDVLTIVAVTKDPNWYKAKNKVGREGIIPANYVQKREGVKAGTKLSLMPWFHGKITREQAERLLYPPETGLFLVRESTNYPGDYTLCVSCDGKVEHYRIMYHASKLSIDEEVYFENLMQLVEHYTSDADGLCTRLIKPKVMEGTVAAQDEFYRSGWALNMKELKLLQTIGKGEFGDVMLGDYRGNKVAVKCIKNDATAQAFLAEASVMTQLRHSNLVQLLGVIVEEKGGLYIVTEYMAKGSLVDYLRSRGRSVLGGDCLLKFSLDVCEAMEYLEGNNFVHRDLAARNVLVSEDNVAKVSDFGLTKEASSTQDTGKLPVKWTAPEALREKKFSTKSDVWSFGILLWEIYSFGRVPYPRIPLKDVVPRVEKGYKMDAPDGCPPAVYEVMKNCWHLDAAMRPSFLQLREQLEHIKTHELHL
T23 sequence (Q7L7X3 whole entry): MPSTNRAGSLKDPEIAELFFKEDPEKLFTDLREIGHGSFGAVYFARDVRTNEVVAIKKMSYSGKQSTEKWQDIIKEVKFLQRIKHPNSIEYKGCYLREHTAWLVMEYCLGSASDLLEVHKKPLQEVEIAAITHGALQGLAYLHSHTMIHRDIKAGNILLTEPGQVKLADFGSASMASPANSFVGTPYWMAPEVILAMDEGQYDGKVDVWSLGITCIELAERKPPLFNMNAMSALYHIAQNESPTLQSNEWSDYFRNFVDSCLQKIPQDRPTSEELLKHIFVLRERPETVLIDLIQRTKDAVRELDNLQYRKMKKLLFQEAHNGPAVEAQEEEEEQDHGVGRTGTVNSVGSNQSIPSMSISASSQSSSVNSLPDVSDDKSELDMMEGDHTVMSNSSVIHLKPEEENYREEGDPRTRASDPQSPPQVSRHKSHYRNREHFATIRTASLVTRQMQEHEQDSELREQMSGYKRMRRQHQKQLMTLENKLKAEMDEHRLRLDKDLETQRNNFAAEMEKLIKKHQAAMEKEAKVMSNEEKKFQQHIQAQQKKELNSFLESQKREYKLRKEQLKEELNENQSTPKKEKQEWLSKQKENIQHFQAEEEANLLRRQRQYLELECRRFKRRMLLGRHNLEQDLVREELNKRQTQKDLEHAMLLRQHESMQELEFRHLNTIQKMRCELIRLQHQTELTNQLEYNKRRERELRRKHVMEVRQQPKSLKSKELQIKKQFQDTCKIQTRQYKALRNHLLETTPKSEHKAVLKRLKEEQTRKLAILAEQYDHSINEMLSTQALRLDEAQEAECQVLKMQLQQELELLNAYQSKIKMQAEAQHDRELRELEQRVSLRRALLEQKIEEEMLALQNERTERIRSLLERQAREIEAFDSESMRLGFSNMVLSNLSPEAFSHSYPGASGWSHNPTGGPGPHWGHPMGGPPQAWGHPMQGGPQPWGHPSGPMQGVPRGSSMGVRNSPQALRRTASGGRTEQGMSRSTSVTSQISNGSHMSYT
T20 sequence (Q96KB5 whole entry): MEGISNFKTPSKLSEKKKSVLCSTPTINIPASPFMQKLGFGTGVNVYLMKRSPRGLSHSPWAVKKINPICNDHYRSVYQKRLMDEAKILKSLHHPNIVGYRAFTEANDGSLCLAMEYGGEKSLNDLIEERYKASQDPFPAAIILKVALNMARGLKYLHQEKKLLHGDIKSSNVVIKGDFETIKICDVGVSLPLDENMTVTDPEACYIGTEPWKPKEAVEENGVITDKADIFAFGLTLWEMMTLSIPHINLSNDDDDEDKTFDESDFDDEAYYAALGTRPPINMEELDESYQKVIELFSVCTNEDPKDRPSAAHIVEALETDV
T4 sequence (Q16644 whole entry): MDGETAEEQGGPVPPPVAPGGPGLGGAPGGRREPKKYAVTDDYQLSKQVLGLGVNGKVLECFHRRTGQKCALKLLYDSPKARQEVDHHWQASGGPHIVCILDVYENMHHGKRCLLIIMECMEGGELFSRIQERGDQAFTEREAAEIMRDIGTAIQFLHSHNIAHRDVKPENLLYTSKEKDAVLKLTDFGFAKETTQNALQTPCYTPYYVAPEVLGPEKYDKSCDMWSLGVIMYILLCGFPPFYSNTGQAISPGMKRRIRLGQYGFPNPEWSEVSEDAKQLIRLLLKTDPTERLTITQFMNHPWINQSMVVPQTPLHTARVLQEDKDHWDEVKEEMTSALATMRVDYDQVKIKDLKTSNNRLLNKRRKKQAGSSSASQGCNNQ

| SMILES | remaining activity at 0.1 µM [1] [%] | remaining activity at 0.1 µM [2] [%] | remaining activity at 0.1 µM [3] [%] | remaining activity at 0.1 µM [4] [%] | remaining activity at 0.1 µM [5] [%] | remaining activity at 0.1 µM [6] [%] | remaining activity at 0.1 µM [7] [%] | remaining activity at 0.1 µM [8] [%] | remaining activity at 0.1 µM [9] [%] | remaining activity at 0.1 µM [10] [%] | remaining activity at 0.1 µM [11] [%] | remaining activity at 0.1 µM [12] [%] | remaining activity at 0.1 µM [13] [%] | remaining activity at 0.1 µM [14] [%] | remaining activity at 0.1 µM [15] [%] | remaining activity at 0.1 µM ([16]; CDK6/cyclin D1) [%] | remaining activity at 0.1 µM ([16]; CDK6/cyclin D3) [%] | remaining activity at 0.1 µM [17] [%] | remaining activity at 0.1 µM [18] [%] | remaining activity at 0.1 µM [19] [%] | further results |
| --- | --- | --- | --- | --- | --- | --- | --- | --- | --- | --- | --- | --- | --- | --- | --- | --- | --- | --- | --- | --- | --- |
| CN1CCN(Cc2ccc(-c3cnc4[nH]cc(-c5ccc6[nH]ccc6c5)c4c3)cc2)CC1 [Compound 1, 3-(1H-Indol-5-yl)-5-(4-((4-methylpiperazin-1-yl)methyl)phenyl)-1H-pyrrolo[2,3-b]pyridine, reference compound] | 100 | 95.8 | 104 | 101 | 58.8 | 84.8 | 68.2 | 116 | 121 | 92.1 | 78 | 100 | 116 | 106 | 93.9 | 63.1 | 92.2 | 103 | 94 | 31.4 | remaining activity at 0.1 µM [20]: 96.8%; remaining activity at 0.1 µM [21]: 98%; remaining activity at 0.1 µM [22]: 87.5%; remaining activity at 0.1 µM [23]: 78.3%; remaining activity at 0.1 µM [24]: 85.2% |
| OCCN1CCN(Cc2ccc(-c3cnc4[nH]cc(-c5cccc(Cl)c5)c4c3)cc2)CC1 [Compound 12k, 2-(4-(4-(3-(3-Chlorophenyl)-1H-pyrrolo[2,3-b]pyridin-5-yl)benzyl)piperazin-1-yl)ethan-1-ol] | 109 | 88.3 | 94.5 | 96.7 | 17 | 89.2 | 76.7 | 97.9 | 102 | 96.3 | 51.7 | 95.9 | 125 | 95.4 | 95 | 30.7 | 68.2 | 104 | 90.7 | 1.81 | fold change in KHS activity following 12k exposure relative to 1 ([19]; 0.025 μM): 17.36 fold; remaining activity at 0.1 µM [20]: 97.1%; remaining activity at 0.1 µM [21]: 93.5%; remaining activity at 0.1 µM [22]: 90.8%; remaining activity at 0.1 µM [23]: 59.8%; remaining activity at 0.1 µM [24]: 78.2% |
